A short description of the test: Laundry test followed by SPME GC/MS headspace analysis of cotton tracers. The note with it: headspace of the perfume ingredient above wet cotton tracers, Ex 1 (PQ22) versus Ex A (nil-PQ22). The procedure:
100% cotton fabric cut into 30x30cm squares were washed in a mixed cotton/polycotton load of total 3kg in a front load washing machine (Miele 1935) at 40°C cotton short setting, with 2 rinses, using 2.67 mmol/L Ca (15 gpg) water hardness. A 55 ml dose of the respective detergent was added to a dosing cup and placed inside the washing machine. After the wash cycle was finished, the full load was tumbled (using a Miele Novotronic, type: TD7634) for about 1 hour. Table 1: Inventive detergent composition (Ex 1) and comparative laundry detergent composition (Ex A) used in the laundry test:
The load was washed and dried three consecutive times, then placed back into a washing machine After a fourth wash cycle, the wet cotton tracers were separated and packed in aluminium foil until they were ready to be analysed for headspace.
The headspace was analysed using solid […] (SPME) chromatography using the following procedure: • 1. One piece of 4x4 cm cotton tracers were transferred to 25 ml headspace vials. • 2. The fabric samples were equilibrated for 10 minutes at 65°C. • 3. The headspace above the fabrics was sampled via SPME (50/30µm DVB/Carboxen/PDMS) for 5 minutes. • 4. The SPME fiber was subsequently thermally desorbed into the GC. • 5. The analytes were analyzed by GC/MS (GC: Agilent 8890 and MS: Agilent 5977B MS) in full scan mode. The total perfume HS response and perfume headspace composition above the tested legs could be determined.

With “3-(3,3-dimethyl-2,3-dihydro-1H-inden-5-yl)propanal mixt. wth 3-(1,1-dimethyl-2,3-dihydro-1H-inden-5-yl)propanal [Neo Hivernal]”, the “% increase Ex 1 vs Ex A” value is recorded as -58%.
To `C=CCOC(=O)COCCC(C)C` [Allyl amyl glycolate, allyl 2-(isopentyloxy)acetate] belongs 2003%; to `CC1=CCC2CC1C2(C)C` (stereo not drawn) [Alpha pinene, 2,6,6-trimethylbicyclo(3.1.1)hept-2-ene], -33%; to `COc1ccc(C=O)cc1` [Anisic aldehyde, 4-methoxybenzaldehyde], 854%.
Consider `CC(=O)OCc1ccccc1` [Benzyl acetate, benzyl acetate], for which the “% increase Ex 1 vs Ex A” value came out at 1840%.
On to `COc1ccc2ccccc2c1` [Beta napthol methyl ether, 2-methoxynaphthalene], for which the “% increase Ex 1 vs Ex A” value worked out at 104%.
To `CC(C)=CCCC(C)CCO` (stereo not shown) [Citronellol, 3,7-dimethyloct-6-en-1-ol] belongs 108%; to `CC(C)=CCCC(C)CC#N` (stereo not shown) [Citronellyl nitrile, 3,7-dimethyloct-6-enenitrile], 457%.
In the case of `CC1/C=C/CCCCCCCCCCC(=O)C1` (stereo not shown) [Delta muscenone, (E)-3-methylcyclopentadec-4-en-1-one], the “% increase Ex 1 vs Ex A” value is listed as -27%.
Consider `CCOC(=O)C1OC1(C)c1ccccc1` (stereo not shown) [Ethyl methyl phenyl glycidate, ethyl 3-methyl-3-phenyloxirane-2-carboxylate], for which the “% increase Ex 1 vs Ex A” value is listed as “inf”.
Regarding `CCOC(=O)C1=C(C)C=CCC1(C)C` [Ethyl safranate, ethyl 2,6,6-trimethylcyclohexa-1,3-diene-1-carboxylate], the “% increase Ex 1 vs Ex A” value was found to be 26%.
On to `O=C1CCCCCCCCCCCCCCO1` [Exaltolide total, oxacyclohexadecan-2-one], for which the “% increase Ex 1 vs Ex A” value is -33%.
Take `CC(C)c1cccc(C(C)CC=O)c1` (stereo not shown) [Florhydral, 3-(3-isopropylphenyl)butanal]: the “% increase Ex 1 vs Ex A” value is -60%.
Regarding `CCC(=O)OCC(C)(C)OC(C)C1CCCC(C)(C)C1` (stereo not shown) [Helvetolide, 2-(1-(3,3-dimethylcyclohexyl)ethoxy)-2-methylpropyl propionate], the “% increase Ex 1 vs Ex A” value is reported as -50%.
Turning to `CC(=O)/C=C/C1=C(C)CCCC1(C)C` [Ionone beta, (E)-4-(2,6,6-trimethylcyclohex-1-en-1-yl)but-3-en-2-one], the “% increase Ex 1 vs Ex A” value was determined as 18%.
In the case of `CCCC(=O)OCCC(C)C` [Isoamyl butyrate, isopentyl butyrate], the “% increase Ex 1 vs Ex A” value amounted to 8685%.
With `C=C(C)C1CC=C(C)C(=O)C1` (stereo not shown) [Laevo carvone, 2-methyl-5-(prop-1-en-2-yl)cyclohex-2-en-1-one] the figure was 468%.
With `CC(C=O)Cc1ccc(C(C)(C)C)cc1` (stereo not shown) [Lilial, 3-(4-(tert-butyl)phenyl)-2-methylpropanal], the “% increase Ex 1 vs Ex A” value is reported as -55%.
For `C=CC(C)(O)CCC=C(C)C` (stereo not shown) [Linalool, 3,7-dimethylocta-1,6-dien-3-ol], the “% increase Ex 1 vs Ex A” value is on record as 42%.
For `C=CC(C)(CCC=C(C)C)OC(=O)CC` (stereo not shown) [Linalyl propionate, 3,7-dimethylocta-1,6-dien-3-yl propionate], the “% increase Ex 1 vs Ex A” value is listed as -50%.
For the compound `CC(=O)c1ccc2ccccc2c1` [Methyl Beta-napthyl ketone, 1-(naphthalen-2-yl)ethan-1-one], the “% increase Ex 1 vs Ex A” value is 268%.
For `COC(=O)c1ccccc1O` [Methyl salicylate, methyl 2-hydroxybenzoate], the “% increase Ex 1 vs Ex A” value turned out to be 915%.
In the case of `CCCCCCCC=O` [Octyl Aldehyde, octanal], the “% increase Ex 1 vs Ex A” value is listed as 16%.
As to `COc1ccc(C)cc1` [Para cresyl methyl ether, 1-methoxy-4-methylbenzene], the “% increase Ex 1 vs Ex A” value is reported as 13731%.
In the case of `CC(C)(O)CCc1ccccc1` [Phenyl ethyl dimethyl carbinol, 2-methyl-4-phenylbutan-2-ol], the “% increase Ex 1 vs Ex A” value was determined as 1106%.

The record behind these values is patent EP4245832B1, “DETERGENT COMPOSITIONS” (The Procter & Gamble Company, priority 2022, dated 2023).
